Like-named read-outs stand apart in the source and are kept apart here. *1 amine or outer side, *2 acyl side, *3 side chain or, on linkers, in order; H or OH if unused. Where a SMILES comes first, the peptide text is derived from it. Bridges are numbered along the chain shown (N, C = ends). [ ]: non-standard residue; d: D form. Acbc(trans-1,3) = O=C([C@H]1C[C@H](N[*:1])C1)[*:2]; Acbc(cis-1,3) = O=C([C@H]1C[C@@H](N[*:1])C1)[*:2]; X1 = O=C([C@@H]1CCC[C@@H]1N[*:1])[*:2]
Tests used:
Fc-tagged human IFNGR1 = target: T1, Fc-tagged human IFNGR1 (Homo sapiens, UniProt P15260); test: Binding kinetics and affinity to IFNGR1 by surface plasmon resonance (SPR); details: for kon: read-out: ka
T1 construct: purchased ACROBiosystems
T1 sequence (P15260 18-489): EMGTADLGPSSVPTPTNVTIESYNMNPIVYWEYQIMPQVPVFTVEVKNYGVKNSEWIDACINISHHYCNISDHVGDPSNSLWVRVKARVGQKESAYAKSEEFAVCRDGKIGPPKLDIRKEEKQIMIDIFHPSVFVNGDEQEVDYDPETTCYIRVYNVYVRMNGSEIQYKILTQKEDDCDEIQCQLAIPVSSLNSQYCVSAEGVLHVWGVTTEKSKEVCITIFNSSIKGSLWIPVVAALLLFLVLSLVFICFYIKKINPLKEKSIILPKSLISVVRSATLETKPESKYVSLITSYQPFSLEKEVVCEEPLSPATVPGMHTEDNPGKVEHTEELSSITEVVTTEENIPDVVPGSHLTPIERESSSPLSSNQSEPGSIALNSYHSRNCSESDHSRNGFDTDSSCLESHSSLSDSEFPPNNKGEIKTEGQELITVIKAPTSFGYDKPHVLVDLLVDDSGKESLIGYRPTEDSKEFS
Procedure: (§1) Binding affinities of IA1 and IA2 against IFNGR1 were evaluated by surface plasmon resonance (SPR) (Table 1 and SI Figure S6A). […] To investigate the contribution of the N-terminal [yVPβ^1RR] motif and β^1 residue in IA1, three scrambled peptides IA1s1–3 and a variant IA1β^14A were synthesized and evaluated. […] We next evaluated inhibitory activities of IA1 and IA2 against the ligand–receptor PPI between IFN-γ and IFNGR1 using AlphaLISA (Table 1 and SI Figure S7).[37] […] We also determined the serum half-lives of IA1 and IA2, considering peptidase resistance as an important factor for therapeutic peptides.[24] A sample peptide and a peptidase-resistant internal standard peptide were coincubated in human serum at 37 °C, and the relative amount of the remaining sample peptide was estimated by LC/MS. […]
Evaluation of binding affinity of peptides by surface plasmon resonance The binding affinities of selected peptides and IFNGR1 were analyzed by surface plasmon resonance (SPR) using a Biacore T200 instrument (Cytiva) at 25 °C with the following running buffer: 10 mM Tris-HCl (pH 8.0), 150 mM NaCl, 0.05% (v/v) Tween 20 , and 0.1% (v/v) DMSO. Fc-tagged IFNGR1 was immobilized on a series S sensor chip protein G (Cytiva) to a surface density of 1,200–1,600 response units following the immobilization protocols provided by Cytiva. The kinetic constants were determined by a single-cycle kinetics method by the injection of five different concentrations (twofold dilution series) of each peptide at a flow rate of 30 μL/min. The resulting sensorgrams were fitted to the standard 1:1 interaction model and analyzed using Biacore evaluation software. […]

[1] = Serum stability assay (LC/MS); assay type: in vitro ADME, human; details: human serum, 37 °C, LC/MS, relative to internal standard peptide, n = 3, read-out: half-life in human serum (t1/2) (converted)
Procedure: as §1
10–200 μM synthetic peptide and 5 μM serum-resistant internal standard peptide consisting only of D-amino acids (NH2-PEG5-wstndwstnd-PEG5-CONH2)3 were mixed and incubated in human serum (Cosmo Bio, 12181201) at 37 °C for up to 120 h. At each time point, 4 μL of the mixture was removed and quenched by adding 12 μl methanol. Following centrifugation (15,000 g, 4 °C, 5 min), 10 μL of the supernatant was mixed with 40 μl of 1% (v/v) TFA. Following centrifugation (15,000 g, 4 °C, 5 min), the supernatant was collected for LC/MS analysis, which used a reverse-phase column (ACQUITY UPLC BEH C18, 1.7 μm, 2.1 × 150 mm; Waters) and a Xevo G2-XS QTof system (Waters) with a linear gradient from 1% B to 61% B. Buffer A was water with 0.1% (v/v) formic acid; buffer B was acetonitrile with 0.1% (v/v) formic acid. The percentages of remaining peptides were determined by the peak area integration of the chromatograms. For tandem mass spectrometry, MS/MS spectra were acquired with a 0.2 s scan time, with 10−30 eV collision energy. The obtained LC/MS data was analyzed using MassLynx 4.1 (Waters). […]

[2] = SPR, 25 °C, 1:1 binding model, read-out: KD
[3] = SPR, 25 °C, single-cycle kinetics, 1:1 binding model

| Structure (SMILES) | Kd (Fc-tagged human IFNGR1; [2]) | kon (Fc-tagged human IFNGR1; [3]) | half-life ([1]; human) | Kd (Fc-tagged human IFNGR1) | kon (Fc-tagged human IFNGR1) | half-life [1] |
| --- | --- | --- | --- | --- | --- | --- |
| CC(C)[C@@H]1NC(=O)[C@@H]2CCC[C@@H]2NC(=O)[C@H](CCCNC(=N)N)NC(=O)[C@H](Cc2c[nH]cn2)NC(=O)[C@@H]2CCCN2C(=O)[C@H](CCCNC(=N)N)NC(=O)[C@H]2C[C@H](C2)NC(=O)[C@H]([C@@H](C)O)NC(=O)[C@H](CCCNC(=N)N)NC(=O)[C@H](CC(N)=O)NC(=O)[C@H](CO)NC(=O)[C@@H](Cc2ccc(O)cc2)NC(=O)CSC[C@H](C(N)=O)NC(=O)[C@H](Cc2c[nH]cn2)NC(=O)[C@H](CC(N)=O)NC1=O [IA1s1, ^AcySNRTγ^1RPHRβ^1VNHc-NH2] ({CH2CO}-[dY]SNRT[Acbc(cis-1,3)]RPHR[X1]VNH[dC]-NH2; thioether N-15) | > 10 µM |  |  |  |  |  |
| CC(C)[C@@H]1NC(=O)[C@H](CCCNC(=N)N)NC(=O)[C@@H]2CCC[C@@H]2NC(=O)[C@@H](Cc2ccc(O)cc2)NC(=O)CSC[C@H](C(N)=O)NC(=O)[C@H](CC(N)=O)NC(=O)[C@H](CO)NC(=O)[C@H](CCCNC(=N)N)NC(=O)[C@H]2C[C@H](C2)NC(=O)[C@H](Cc2c[nH]cn2)NC(=O)[C@H](CC(N)=O)NC(=O)[C@H]([C@@H](C)O)NC(=O)[C@H](Cc2c[nH]cn2)NC(=O)[C@H](CCCNC(=N)N)NC(=O)[C@@H]2CCCN2C1=O [IA1s3, ^Acyβ^1RVPRHTNHγ^1RSNc-NH2] ({CH2CO}-[dY][X1]RVPRHTNH[Acbc(cis-1,3)]RSN[dC]-NH2; thioether N-15) | > 10 µM |  |  |  |  |  |
| CC(C)[C@@H]1NC(=O)[C@@H](Cc2ccc(O)cc2)NC(=O)CSC[C@H](C(N)=O)NC(=O)[C@H](CC(N)=O)NC(=O)[C@H](CO)NC(=O)[C@H](CCCNC(=N)N)NC(=O)[C@H]2C[C@H](C2)NC(=O)[C@H](Cc2c[nH]cn2)NC(=O)[C@H](CC(N)=O)NC(=O)[C@H]([C@@H](C)O)NC(=O)[C@H](Cc2c[nH]cn2)NC(=O)[C@H](CCCNC(=N)N)NC(=O)[C@H](CCCNC(=N)N)NC(=O)[C@H](C)NC(=O)[C@@H]2CCCN2C1=O [IA1β^14A, ^AcyVPA RRHTNHγ^1RSNc-NH2] ({CH2CO}-[dY]VPARRHTNH[Acbc(cis-1,3)]RSN[dC]-NH2; thioether N-15) | > 10 µM |  | 42.6 ± 6 min |  |  |  |
| CC(C)[C@@H]1NC(=O)[C@@H](Cc2ccc(O)cc2)NC(=O)CSC[C@H](C(N)=O)NC(=O)[C@H](CC(N)=O)NC(=O)[C@H]2C[C@@H](C2)NC(=O)[C@H](CCCNC(=N)N)NC(=O)[C@@H]2CCCN2C(=O)[C@H]([C@@H](C)O)NC(=O)[C@H](CCCNC(=N)N)NC(=O)[C@H](CCCNC(=N)N)NC(=O)[C@H](CO)NC(=O)[C@H](CCCNC(=N)N)NC(=O)[C@H](CCCNC(=N)N)NC(=O)[C@H](C)NC(=O)[C@@H]2CCCN2C1=O [IB4β^14A, ^AcyVPA RRSRRTPRγ^2Nc-NH2] ({CH2CO}-[dY]VPARRSRRTPR[Acbc(trans-1,3)]N[dC]-NH2; thioether N-15) |  |  |  | 0.42 ± 0.12 µM | 8900 ± 2100 M⁻¹ s⁻¹ | 30 ± 1.8 min |
| CC(C)[C@@H]1NC(=O)[C@@H](Cc2ccc(O)cc2)NC(=O)CSC[C@H](C(N)=O)NC(=O)[C@H](CC(N)=O)NC(=O)[C@H](Cc2c[nH]cn2)NC(=O)[C@H](CCCNC(=N)N)NC(=O)[C@H]2C[C@@H](C2)NC(=O)[C@H]([C@@H](C)O)NC(=O)[C@H](Cc2c[nH]cn2)NC(=O)[C@@H]2CCCN2C(=O)[C@H](CO)NC(=O)[C@H](CCCNC(=N)N)NC(=O)[C@H](CCCNC(=N)N)NC(=O)[C@H](C)NC(=O)[C@@H]2CCCN2C1=O [IB5β^14A, ^AcyVPA RRSPHTγ^2RHNc-NH2] ({CH2CO}-[dY]VPARRSPHT[Acbc(trans-1,3)]RHN[dC]-NH2; thioether N-15) | > 10 µM |  | 24.6 ± 1.8 min |  |  |  |

Now from value to compound, other results behind:

| Kd (Fc-tagged human IFNGR1; [2]) | kon (Fc-tagged human IFNGR1; [3]) | half-life ([1]; human) | Structure (SMILES) | Kd (Fc-tagged human IFNGR1) | kon (Fc-tagged human IFNGR1) | half-life [1] |
| --- | --- | --- | --- | --- | --- | --- |
| 1.4 ± 0.2 µM | 3600 ± 100 M⁻¹ s⁻¹ | 156 ± 6 min | CC(C)[C@@H]1NC(=O)[C@H](Cc2ccc(O)cc2)NC(=O)CSC[C@@H](C(N)=O)NC(=O)[C@H](CC(N)=O)NC(=O)[C@H](CO)NC(=O)[C@H](CCCNC(=N)N)NC(=O)[C@H]2C[C@H](C2)NC(=O)[C@H](Cc2c[nH]cn2)NC(=O)[C@H](CC(N)=O)NC(=O)[C@H]([C@@H](C)O)NC(=O)[C@H](Cc2c[nH]cn2)NC(=O)[C@H](CCCNC(=N)N)NC(=O)[C@H](CCCNC(=N)N)NC(=O)[C@@H]2CCC[C@@H]2NC(=O)[C@@H]2CCCN2C1=O [IA1YC, ^AcYVPβ^1RRHTNHγ^1RSNC-NH2] ({CH2CO}-YVP[X1]RRHTNH[Acbc(cis-1,3)]RSNC-NH2; thioether N-15) |  |  |  |
| 2.2 ± 0.2 µM | 2200 ± 200 M⁻¹ s⁻¹ |  | CC(C)[C@@H]1NC(=O)[C@@H](Cc2ccc(O)cc2)NC(=O)CSC[C@H](C(N)=O)NC(=O)[C@H]([C@@H](C)O)NC(=O)[C@H](CC(N)=O)NC(=O)[C@H](Cc2c[nH]cn2)NC(=O)[C@H](CC(N)=O)NC(=O)[C@H](CCCNC(=N)N)NC(=O)[C@H](Cc2c[nH]cn2)NC(=O)[C@H]2C[C@H](C2)NC(=O)[C@H](CO)NC(=O)[C@H](CCCNC(=N)N)NC(=O)[C@H](CCCNC(=N)N)NC(=O)[C@@H]2CCC[C@@H]2NC(=O)[C@@H]2CCCN2C1=O [IA1s2, ^AcyVPβ^1RRSγ^1HRNHNTc-NH2] ({CH2CO}-[dY]VP[X1]RRS[Acbc(cis-1,3)]HRNHNT[dC]-NH2; thioether N-15) |  |  |  |
| 1.7 ± 0.2 µM | 2200 ± 300 M⁻¹ s⁻¹ |  | CC(C)[C@@H]1NC(=O)[C@H](Cc2ccc(O)cc2)NC(=O)CSC[C@@H](C(N)=O)NC(=O)[C@H](CCCNC(=N)N)NC(=O)[C@H](CO)NC(=O)[C@H](CCCNC(=N)N)NC(=O)[C@H](Cc2c[nH]cn2)NC(=O)CNC(=O)[C@H]2C[C@H](C2)NC(=O)[C@H](Cc2c[nH]cn2)NC(=O)[C@H](CC(N)=O)NC(=O)[C@H](CCCNC(=N)N)NC(=O)[C@H](CCCNC(=N)N)NC(=O)[C@@H]2CCC[C@@H]2NC(=O)[C@H](C)NC1=O [IB1YC, ^AcYVAβ^1RRNHγ^1GHRSRC-NH2] ({CH2CO}-YVA[X1]RRNH[Acbc(cis-1,3)]GHRSRC-NH2; thioether N-15) |  |  |  |
| 0.045 ± 0.005 µM | 58000 ± 11000 M⁻¹ s⁻¹ | 55.2 ± 6.6 min | CC(C)[C@@H]1NC(=O)[C@H](Cc2ccc(O)cc2)NC(=O)CSC[C@@H](C(N)=O)NC(=O)[C@H](CC(N)=O)NC(=O)[C@H]2C[C@@H](C2)NC(=O)[C@H](CCCNC(=N)N)NC(=O)[C@@H]2CCCN2C(=O)[C@H]([C@@H](C)O)NC(=O)[C@H](CCCNC(=N)N)NC(=O)[C@H](CCCNC(=N)N)NC(=O)[C@H](CO)NC(=O)[C@H](CCCNC(=N)N)NC(=O)[C@H](CCCNC(=N)N)NC(=O)[C@@H]2CCC[C@@H]2NC(=O)[C@@H]2CCCN2C1=O [IB4YC, ^AcYVPβ^1RRSRRTPRγ^2NC-NH2] ({CH2CO}-YVP[X1]RRSRRTPR[Acbc(trans-1,3)]NC-NH2; thioether N-15) |  |  |  |
| 1.9 ± 0.1 µM | 16000 ± 1000 M⁻¹ s⁻¹ | 840 ± 120 min | CC(C)[C@@H]1NC(=O)[C@H](Cc2ccc(O)cc2)NC(=O)CSC[C@@H](C(N)=O)NC(=O)[C@H](CC(N)=O)NC(=O)[C@H](Cc2c[nH]cn2)NC(=O)[C@H](CCCNC(=N)N)NC(=O)[C@H]2C[C@@H](C2)NC(=O)[C@H]([C@@H](C)O)NC(=O)[C@H](Cc2c[nH]cn2)NC(=O)[C@@H]2CCCN2C(=O)[C@H](CO)NC(=O)[C@H](CCCNC(=N)N)NC(=O)[C@H](CCCNC(=N)N)NC(=O)[C@@H]2CCC[C@@H]2NC(=O)[C@@H]2CCCN2C1=O [IB5YC, ^AcYVPβ^1RRSPHTγ^2RHNC-NH2] ({CH2CO}-YVP[X1]RRSPHT[Acbc(trans-1,3)]RHNC-NH2; thioether N-15) |  |  |  |

From paper PMC11229689, “In Vitro Selection of Macrocyclic L-α/D-α/β/γ-Hybrid Peptides Targeting IFN-γ/IFNGR1 Protein–Protein Interaction” (Journal of the American Chemical Society, 2024)
